Measurements taken from patent US11008362B2, “Malonyl-coenzyme A mimics as fatty acid synthase inhibitors and methods of use” (priority 2018, dated 2021).

Assays:
[1] = target: MMCD (Escherichia coli, UniProt P52045); details: coupled assay, pH 7.2 and 37° C., not optimized; cited from earlier work
[2] = target: T1, Escherichia coli methylmalonyl-CoA decarboxylase (YgfG, MMCD) (Escherichia coli, UniProt P52045); assay: Inhibition assays of MMCD by 4-9 (HPLC detection, kcat/Km approximation at low substrate); format: biochemical; details: 200 μM methylmalonyl-CoA, 1 nM MMCD, pH 6.5, 25° C.; read-out: Ki (inhibition constant, competitive inhibition)
T1 construct: made in house; host or cells: E. coli BL21 (DE3)
Protocol: Initially we attempted to use isothermal titration calorimetry to determine the binding affinity of our analogs to MMCD. […] Because of this secondary site causes problems with biophysical characterization of binding affinity, we used the kcat/Km approximation at low substrate concentrations for the determination of inhibition constants for our analogs. These assays gave Kis of 7.5±1.1 μM for 4, 3.8±1.6 μM for 5, 7.1±1.7 μM for 6, 10.8±2.3 μM for 7, 20.6±2.7 μM for 8 and 19.8±1.4 μM for 9. The sulfonate isosteres bind tighter than the nitro isosteres in general. Our results have been published and incorporated herein by reference in its entirety (Stunkard, L M, et al., J. Am. Chem. Soc. 2019, 141, 5121-5124).
General procedure for MMCD-His6 catalyzed activity assays. The reactions were performed in a 550 μL reaction mixture which contained 50 mM potassium phosphate buffer (KH2PO4/K2HPO4) at pH 6.5 unless otherwise noted, 10 mM MgCl2, methylmalonyl-CoA and the assay was initiated by the addition of MMCD. Reaction mixtures were incubated at 25° C., 65 μL aliquots taken at times noted below were quenched with 25 μL of 50% TFA v/v, precipitating the protein. Centrifugation at 2000 rpm at 25° C. for 10 minutes was used to pellet the protein and the supernatant was analyzed via the procedure outlined below.
General procedure for determination of methylmalonyl-CoA, propionyl-CoA and CoA concentrations in MMCD catalyzed assays. Substrate and product concentrations were determined using HPLC with detection at A254 over the 250×4.6 mm C18(2) column. The analytes were separated with a 2→25% gradient of 0.1% TFA in water→ACN over 20 min. Peak areas of substrate and products were converted to concentration by summing their areas and dividing each peak by this total to give relative percentages that were converted to concentration by adjusting to the starting concentration of methylmalonyl-CoA. This procedure gave essentially the same values as using a standard curve to generate concentrations for each peak, but enhanced reproducibility due to small differences in recovery from the reaction quenching step outlined above.
Inhibition assays of MMCD by 4-9 were performed according to the general procedure above with 200 μM methylmalonyl-CoA, 4-9 (0 μM, 2 μM, 5 μM, 20 μM, and 50 μM) and the assay was initiated by the addition of 1 nM MMCD. Aliquots were taken at the times 20s, 40s, 60s, 150s, 300s, 600s, 900s, and 1800s.
The initial rates (Vi) of decomposition of methylmalonyl-CoA were determined by fitting the progress curve data to equation (1) which describes a simple exponential decay with rate (k), time (t) and initial substrate concentration ([S]t). The rate of formation of propionyl-CoA or CoA could be fit to equation (2). The derivative at time 0 for Equation (1) divided by enzyme concentration gives the initial rates Vi as shown in equation (3). Using this method rather than linear estimation from the early data points gave similar values. However, it allowed more accurate determination of Vi at early time points. [S]=[S]t·e^−k·t Equation (1) [S]=[S]t·(1−e^k·t) Equation (2) Vi=([S]t·k)/[E] Equation (3)
Inhibition of MMCD by 4-9 was determined by fitting initial rate data to equation (6), which describes competitive inhibition and […] describes the Vi in the presence of inhibitor (Lu, J, et al., Protein Eng. Des. Sel. 2017, 30, 395-399). The values of (Vi·Vis)/(Vii−Vis) and Km/kcat were determined from the initial slopes of Vi or Vii versus substrate concentration rather than from the full assay, see Figures S5 and S9. A minimum of two concentrations were used, 20 or 50 μM of each 4-9 and the experiments were repeated at least twice.

T1 sequence (P52045 whole entry): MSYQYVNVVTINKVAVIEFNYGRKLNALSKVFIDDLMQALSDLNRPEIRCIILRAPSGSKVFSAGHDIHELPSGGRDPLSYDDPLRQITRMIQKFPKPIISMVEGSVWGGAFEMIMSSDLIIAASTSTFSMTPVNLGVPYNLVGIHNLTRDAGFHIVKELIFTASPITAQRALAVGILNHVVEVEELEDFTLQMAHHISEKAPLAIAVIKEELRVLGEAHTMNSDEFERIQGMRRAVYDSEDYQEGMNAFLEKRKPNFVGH
MMCD, sequence (P52045 whole entry): as above

| Compound | Km [1] [µM] | kcat [1] [s⁻¹] | Ki [2] [µM] |
| --- | --- | --- | --- |
| C[C@@H](C(=O)O)C(=O)SCCNC(=O)CCNC(=O)[C@H](O)C(C)(C)COP(=O)(O)OP(=O)(O)OC[C@H]1O[C@@H](n2cnc3c(N)ncnc32)[C@H](O)[C@@H]1OP(=O)(O)O [(2S)-methylmalonyl-CoA] | 13.6 | 1.6 | – |
| CC(C(=O)SCCNC(=O)CCNC(=O)C(O)C(C)(C)COP(=O)(O)OP(=O)(O)OCC1OC(n2cnc3c(N)ncnc32)C(O)C1OP(=O)(O)O)S(=O)(=O)O (centres unmarked) [compound 4, 2-sulfonatepropionyl-S-CoA] | – | – | 7.5 ± 1.1 |
| CC(C(=O)OCCNC(=O)CCNC(=O)C(O)C(C)(C)COP(=O)(O)OP(=O)(O)OCC1OC(n2cnc3c(N)ncnc32)C(O)C1OP(=O)(O)O)S(=O)(=O)O (centres unmarked) [compound 5, 2-sulfonatepropionyl-oxa(dethia)CoA] | – | – | 3.8 ± 1.6 |
| CC(C(=O)NCCNC(=O)CCNC(=O)C(O)C(C)(C)COP(=O)(O)OP(=O)(O)OCC1OC(n2cnc3c(N)ncnc32)C(O)C1OP(=O)(O)O)S(=O)(=O)O (centres unmarked) [compound 6, 2-sulfonatepropionyl-amino(dethia)CoA] | – | – | 7.1 ± 1.7 |
| CC(C(=O)SCCNC(=O)CCNC(=O)[C@H](O)C(C)(C)COP(=O)(O)OP(=O)(O)OC[C@H]1O[C@@H](n2cnc3c(N)ncnc32)[C@H](O)[C@@H]1OP(=O)(O)O)[N+](=O)[O-] (some centres unmarked) [compound 7, 2-nitropropionyl-S-CoA] | – | – | 10.8 ± 2.3 |
| CC(C(=O)OCCNC(=O)CCNC(=O)[C@H](O)C(C)(C)COP(=O)(O)OP(=O)(O)OC[C@H]1O[C@@H](n2cnc3c(N)ncnc32)[C@H](O)[C@@H]1OP(=O)(O)O)[N+](=O)[O-] (some centres unmarked) [compound 8, 2-nitropropionyl-oxa(dethia)CoA] | – | – | 20.6 ± 2.7 |
| CC(C(=O)NCCNC(=O)CCNC(=O)[C@H](O)C(C)(C)COP(=O)(O)OP(=O)(O)OC[C@H]1O[C@@H](n2cnc3c(N)ncnc32)[C@H](O)[C@@H]1OP(=O)(O)O)[N+](=O)[O-] (some centres unmarked) [compound 9, 2-nitropropionyl-amino(dethia)CoA] | – | – | 19.8 ± 1.4 |
